The target of one series is nitroreductase (Escherichia coli, UniProt P38489). The conditions noted are these: substrate for nitroreductase; due to permeability of the cytotoxic metabolite (Bridgewater et al., 1997; Wilson et al., 2002); cited from earlier work.
For the next series, the system named is zebrafish. The conditions noted are these: in vivo; cited from earlier work.
For series [1], the system named is unc-CFP-Nitro expressing cells. As to the kind of experiment: nitroreductase-based pro-drug conversion and cellular ablation in transient transgenic zebrafish embryos. Format: in vivo. The conditions noted are these: metronidazole 10 mM, 5 mM, 2.5 mM in embryo medium; treated from 62 hpf, imaged at 118 hpf; untreated embryos keep both reporters. As for the experimental part:
In order to determine the efficacy of nitroreductase-based pro-drug conversion and subsequent cellular ablation in transient transgenic zebrafish the following experiment was performed: Male and female zebrafish from a ‘transparent’ strain (e.g., harboring the roy mutation) were allowed to mate over egg collection chambers at light onset. Fertilized eggs were collected every 15 minutes and placed in petri dishes containing embryo medium (0.3X Danieau's solution containing 100 units/ml penicillin and 100 μg/ml streptomycin). Eggs were dispensed into a silicone chambers and oriented such that the cell side was facing up. For injections, DNA plasmids were diluted into 1X Danieau's solution to a final concentration of 10 ng/μl. DNA plasmids used for this experiment included: 1) An alpha-1-tubulin promoter driving expression of a Gal4/VP 16 “driver” protein (α-1-tub::Gal4/VP16); 2) A UAS regulated red control fluorescent reporter protein (UAS::DsRed) and; 3) A UAS regulated cyan fluorescent reporter protein (unc-CFP) fused to nitroreductase (UAS::unc-CFP-Nitro, see FIG. 2 and FIG. 3). […] At 28 hpf, injected embryos were screened for equivalent expression of the DsRed reporter (control cells) and the unc-CFP-Nitro ablation/reporter (targeted cells) using standard fluorescence microscopy. […]

The values that follow come from US8071838B2, “Targeted and regional cellular ablation in zebrafish” (Washington University in St. Louis, priority 2003, dated 2011).

nitroreductase, sequence (P38489 whole entry): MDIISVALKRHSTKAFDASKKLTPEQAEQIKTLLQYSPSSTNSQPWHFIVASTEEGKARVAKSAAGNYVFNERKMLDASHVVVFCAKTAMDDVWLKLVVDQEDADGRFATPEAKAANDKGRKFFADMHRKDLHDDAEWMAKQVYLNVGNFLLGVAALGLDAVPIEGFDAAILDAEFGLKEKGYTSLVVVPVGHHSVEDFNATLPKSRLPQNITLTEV

Turning to `NC(=O)c1cc(N2CC2)c([N+](=O)[O-])cc1[N+](=O)[O-]` [CE 1954, 5-(aziridin-1-yl)-2,4-dinitrobenzamide], at nitroreductase, the bystander effect entry is reported as “specifically promote the bystander effect”.
As to `Cc1ncc([N+](=O)[O-])n1CCO` [metronidazole], the general toxicity result in the series on zebrafish is given as “no general toxicity”. Besides, the “ablation of reporter-expressing cells (confocal imaging of unc-CFP-Nitro vs DsRed control reporter)” value in series [1] is “selective elimination of unc-CFP-Nitro expressing cells”.
